Assay results as given in ChEMBL document CHEMBL5579883, “Discovery of Novel Neo-Clerodane Derivatives as Potent Dual-Functional Antiosteoporosis Agents through Targeting Peroxisome Proliferator-Activated Receptor-γ” (J Med Chem, 2024).
pIC50: −log10 of the molar value.

system: BMDM; assay: Cytotoxicity against mouse Bone marrow macrophage at 10 uM measured after 72 hrs by MTT assay; format: toxicity, cell-based; conditions: not given

| Compound | Activity |
| --- | --- |
| CC(=O)OC[C@@]12[C@@H](OC(C)=O)C[C@@H](C)[C@](C)(C[C@H](OC(C)=O)C3=CC(=O)OC3)[C@H]1[C@H](OC(C)=O)CC[C@]21CO1 [AJUGAPANTIN A] | Non-Toxic |
| C/C=C(\C)C(=O)O[C@@H](C[C@@]1(C)[C@H](C)C[C@H](OC(C)=O)[C@]2(COC(C)=O)[C@@H]1[C@H](OC(=O)/C(C)=C/C)CC[C@]21CO1)C1=CC(=O)OC1 [AJUGATAKASIN A] | Non-Toxic |
| CC(=O)O[C@H]1C[C@@H](C)[C@](C)(CCC2=CC(=O)OC2)[C@H]2CCCC(=O)[C@]12CO | Non-Toxic |
| C/C=C(\C)C(=O)OC[C@@]12[C@H](CCC[C@]1(O)CCl)[C@@](C)(CCC1=CC(=O)OC1)[C@H](C)C[C@@H]2O | Non-Toxic |
| CCC(C)C(=O)O[C@@H]1CC[C@]2(CO2)[C@]2(COC(C)=O)[C@@H](OC(C)=O)C[C@@H](C)[C@](C)(C[C@H](O)C3=CC(=O)OC3)[C@@H]12 (stereo not given in full) [DIHYDROAJUGAMARIN] | Non-Toxic |
| C/C=C(\C)C(=O)OC[C@@]12[C@@H](OC(C)=O)C[C@@H](C)[C@](C)(CCC3=CC(=O)OC3)[C@H]1CCC[C@H]2C(=O)O | Non-Toxic |
| C[C@@H]1C[C@H](O)[C@@]2(COC(=O)/C=C/c3ccc(F)cc3)C(=O)CCC[C@@H]2[C@@]1(C)CCC1=CC(=O)OC1 | Non-Toxic |
| C[C@@H]1C[C@H](O)[C@@]2(COC(=O)c3ccc(N(C)C)cc3)C(=O)CCC[C@@H]2[C@@]1(C)CCC1=CC(=O)OC1 | Non-Toxic |
| C[C@@H]1C[C@H](O)[C@@]2(COC(=O)/C=C/c3ccc(C(F)(F)F)cc3)C(=O)CCC[C@@H]2[C@@]1(C)CCC1=CC(=O)OC1 | Non-Toxic |
| C/C=C(\C)C(=O)OC[C@]12C(=O)CCC[C@@H]1[C@@](C)(CCC1=CC(=O)OC1)[C@H](C)C[C@@H]2OC(C)=O | Non-Toxic |
| CC(=O)OC[C@@]12[C@@H](OC(C)=O)C[C@@H](C)[C@](C)(C[C@H](OC(C)=O)C3=CC(=O)OC3)[C@H]1CCC[C@]21CO1 | Non-Toxic |
| COC(=O)[C@@H]1CCC[C@@H]2[C@@](C)(C[C@H](O)C3=CC(=O)OC3)[C@H](C)C[C@H](O)[C@]21C | Non-Toxic |
| C/C=C(\C)C(=O)O[C@@H]1CC[C@]2(CO2)[C@@]2(COC(C)=O)[C@H]1[C@@](C)(C[C@H](OC(C)=O)C1=CC(=O)OC1)[C@H](C)C[C@@H]2O | Non-Toxic |
| CCC(C)C(=O)O[C@@H](C[C@@]1(C)[C@H](C)C[C@H](O)[C@]2(C)[C@@H]1CCC[C@H]2C(=O)OC)C1=CC(=O)OC1 (stereo not given in full) | Non-Toxic |
| C/C=C(\C)C(=O)OC[C@@]12[C@H](CCC[C@]1(O)CCl)[C@@](C)(C[C@H](O)C1=CC(=O)OC1)[C@H](C)C[C@@H]2O | Non-Toxic |
| CC(=O)OC[C@@]12[C@@H](OC(C)=O)C[C@@H](C)[C@](C)(C[C@H](OC(C)=O)C3=CC(=O)OC3)[C@H]1[C@H](O)CC[C@]21CO1 | Non-Toxic |
| CC(=O)OC[C@@]12[C@@H](OC(C)=O)C[C@@H](C)[C@](C)(C[C@H](O)C3=CC(=O)OC3)[C@H]1CCC[C@]21CO1 [AJUGALIDE C] | Non-Toxic |
| C/C=C(\C)C(=O)OC[C@@]12C(=O)C[C@@H](C)[C@](C)(CCC3=CC(=O)OC3)[C@H]1CCC[C@]21CO1 | Non-Toxic |
| C/C=C(\C)C(=O)OC[C@@]12[C@@H](OC(C)=O)C[C@@H](C)[C@](C)(C[C@H](O)C3=CC(=O)OC3)[C@H]1CCC[C@]21CO1 | Non-Toxic |
| C/C=C(\C)C(=O)O[C@@H](C[C@@]1(C)[C@H](C)C[C@H](OC(C)=O)[C@]2(COC(C)=O)[C@@H]1[C@H](O)CC[C@]21CO1)C1=CC(=O)OC1 | Non-Toxic |
| C/C=C(\C)C(=O)OC[C@@]12[C@@H](OC(C)=O)C[C@@H](C)[C@](C)(CCC3=CC(=O)OC3)[C@H]1CCC[C@]2(O)CCl [AJUGACUMBIN A CHLOROHYDRIN] | Non-Toxic |
| C/C=C(\C)C(=O)OC[C@@]12[C@@H](OC(C)=O)C[C@@H](C)[C@](C)(CCC3=CC(=O)OC3)[C@H]1CCC[C@]2(O)COC(C)=O | Non-Toxic |

target: T1, Peroxisome proliferator-activated receptor gamma (Homo sapiens, UniProt P37231); assay: Antagonist activity at PPAR gamma LBD (203 to 476 residues) (unknown origin) expressed in HEK293T cells co-transfected with pCMV-GAL4-PPARgamma-LBD-SV40-Renilla-luciferase assessed as reduction of rosiglitazone induced PPAR-gamma activation incubated for 24 hrs by dural-luciferase reporter assay; format: cell-based; conditions: not given
T1 sequence (P37231 whole entry): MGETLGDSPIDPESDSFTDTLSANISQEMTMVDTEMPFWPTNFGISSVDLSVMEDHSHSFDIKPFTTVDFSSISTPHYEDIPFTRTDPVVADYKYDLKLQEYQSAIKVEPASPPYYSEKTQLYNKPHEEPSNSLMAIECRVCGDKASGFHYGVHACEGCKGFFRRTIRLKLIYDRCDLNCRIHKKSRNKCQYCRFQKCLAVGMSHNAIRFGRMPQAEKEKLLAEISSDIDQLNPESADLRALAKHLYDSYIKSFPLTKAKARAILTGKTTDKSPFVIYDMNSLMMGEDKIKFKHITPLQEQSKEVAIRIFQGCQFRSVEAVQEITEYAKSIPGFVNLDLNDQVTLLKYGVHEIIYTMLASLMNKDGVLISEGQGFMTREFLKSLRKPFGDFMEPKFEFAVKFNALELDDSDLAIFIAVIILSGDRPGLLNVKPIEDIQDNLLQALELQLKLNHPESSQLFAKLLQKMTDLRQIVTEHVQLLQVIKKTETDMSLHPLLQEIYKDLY

| Compound | pIC50 |
| --- | --- |
| CC(=O)O[C@H]1C[C@@H](C)[C@](C)(CCC2=CC(=O)OC2)[C@H]2CCCC(=O)[C@]12CO | < 4.70 |
| C/C=C(\C)C(=O)OC[C@@]12[C@H](CCC[C@]1(O)CCl)[C@@](C)(CCC1=CC(=O)OC1)[C@H](C)C[C@@H]2O | 4.98 |
| CC(=O)OC[C@@]12[C@@H](OC(C)=O)C[C@@H](C)[C@](C)(C[C@H](OC(C)=O)C3=CC(=O)OC3)[C@H]1CCC[C@]21CO1 | 4.88 |
| CCC(C)C(=O)O[C@@H](C[C@@]1(C)[C@H](C)C[C@H](O)[C@]2(C)[C@@H]1CCC[C@H]2C(=O)OC)C1=CC(=O)OC1 (stereo not given in full) | 4.89 |
| C/C=C(\C)C(=O)OC[C@@]12[C@H](CCC[C@]1(O)CCl)[C@@](C)(C[C@H](O)C1=CC(=O)OC1)[C@H](C)C[C@@H]2O | 4.94 |
| CC(=O)OC[C@@]12[C@@H](OC(C)=O)C[C@@H](C)[C@](C)(C[C@H](OC(C)=O)C3=CC(=O)OC3)[C@H]1[C@H](O)CC[C@]21CO1 | 4.89 |
| C/C=C(\C)C(=O)OC[C@@]12C(=O)C[C@@H](C)[C@](C)(CCC3=CC(=O)OC3)[C@H]1CCC[C@]21CO1 | 5.69 |
| C/C=C(\C)C(=O)O[C@@H](C[C@@]1(C)[C@H](C)C[C@H](OC(C)=O)[C@]2(COC(C)=O)[C@@H]1[C@H](O)CC[C@]21CO1)C1=CC(=O)OC1 | 4.71 |
| C/C=C(\C)C(=O)OC[C@@]12[C@@H](OC(C)=O)C[C@@H](C)[C@](C)(CCC3=CC(=O)OC3)[C@H]1CCC[C@]2(O)CCl [AJUGACUMBIN A CHLOROHYDRIN] | 4.99 |
| C/C=C(\C)C(=O)OC[C@@]12[C@@H](OC(C)=O)C[C@@H](C)[C@](C)(CCC3=CC(=O)OC3)[C@H]1CCC[C@]2(O)COC(C)=O | < 4.70 |

system: BMDM; assay: Inhibition of osteoclastogenesis in C57BL/6J mouse Bone marrow macrophage cells assessed as inhibition of RANKL-stimulated osteoclast formation measured after 6 days by tartrate-resistant acid phosphatase (TRAP) staining assay; conditions: 144 h

| Compound | pIC50 |
| --- | --- |
| CC(=O)O[C@H]1C[C@@H](C)[C@](C)(CCC2=CC(=O)OC2)[C@H]2CCCC(=O)[C@]12CO | < 5.00 |
| C/C=C(\C)C(=O)OC[C@@]12[C@H](CCC[C@]1(O)CCl)[C@@](C)(CCC1=CC(=O)OC1)[C@H](C)C[C@@H]2O | 5.75 |
| C[C@@H]1C[C@H](O)[C@@]2(COC(=O)c3ccc(N(C)C)cc3)C(=O)CCC[C@@H]2[C@@]1(C)CCC1=CC(=O)OC1 | 6.51 |
| CC(=O)OC[C@@]12[C@@H](OC(C)=O)C[C@@H](C)[C@](C)(C[C@H](OC(C)=O)C3=CC(=O)OC3)[C@H]1CCC[C@]21CO1 | 5.56 |
| CCC(C)C(=O)O[C@@H](C[C@@]1(C)[C@H](C)C[C@H](O)[C@]2(C)[C@@H]1CCC[C@H]2C(=O)OC)C1=CC(=O)OC1 (stereo not given in full) | 5.91 |
| C/C=C(\C)C(=O)OC[C@@]12[C@H](CCC[C@]1(O)CCl)[C@@](C)(C[C@H](O)C1=CC(=O)OC1)[C@H](C)C[C@@H]2O | 5.76 |
| CC(=O)OC[C@@]12[C@@H](OC(C)=O)C[C@@H](C)[C@](C)(C[C@H](OC(C)=O)C3=CC(=O)OC3)[C@H]1[C@H](O)CC[C@]21CO1 | 5.29 |
| C/C=C(\C)C(=O)OC[C@@]12C(=O)C[C@@H](C)[C@](C)(CCC3=CC(=O)OC3)[C@H]1CCC[C@]21CO1 | 6.08 |
| C/C=C(\C)C(=O)O[C@@H](C[C@@]1(C)[C@H](C)C[C@H](OC(C)=O)[C@]2(COC(C)=O)[C@@H]1[C@H](O)CC[C@]21CO1)C1=CC(=O)OC1 | 5.33 |
| C/C=C(\C)C(=O)OC[C@@]12[C@@H](OC(C)=O)C[C@@H](C)[C@](C)(CCC3=CC(=O)OC3)[C@H]1CCC[C@]2(O)CCl [AJUGACUMBIN A CHLOROHYDRIN] | 5.95 |
| C/C=C(\C)C(=O)OC[C@@]12[C@@H](OC(C)=O)C[C@@H](C)[C@](C)(CCC3=CC(=O)OC3)[C@H]1CCC[C@]2(O)COC(C)=O | 5.21 |

system: BMDM; assay: cells; conditions: Mus musculus, 144 h, read-out: INH
Description: Inhibition of osteoclastogenesis in C57BL/6J mouse Bone marrow macrophage cells assessed as inhibition of RANKL-stimulated osteoclast formation at 10 uM measured after 6 days by tartrate-resistant acid phosphatase (TRAP) staining assay relative to control

| Compound | inhibition at 10 µM |
| --- | --- |
| C/C=C(\C)C(=O)OC[C@@]12[C@H](CCC[C@]1(O)CCl)[C@@](C)(CCC1=CC(=O)OC1)[C@H](C)C[C@@H]2O | > 50% |
| CC(=O)OC[C@@]12[C@@H](OC(C)=O)C[C@@H](C)[C@](C)(C[C@H](OC(C)=O)C3=CC(=O)OC3)[C@H]1CCC[C@]21CO1 | > 50% |
| CCC(C)C(=O)O[C@@H](C[C@@]1(C)[C@H](C)C[C@H](O)[C@]2(C)[C@@H]1CCC[C@H]2C(=O)OC)C1=CC(=O)OC1 (stereo not given in full) | > 50% |
| C/C=C(\C)C(=O)OC[C@@]12[C@H](CCC[C@]1(O)CCl)[C@@](C)(C[C@H](O)C1=CC(=O)OC1)[C@H](C)C[C@@H]2O | > 50% |
| CC(=O)OC[C@@]12[C@@H](OC(C)=O)C[C@@H](C)[C@](C)(C[C@H](OC(C)=O)C3=CC(=O)OC3)[C@H]1[C@H](O)CC[C@]21CO1 | > 50% |
| C/C=C(\C)C(=O)O[C@@H](C[C@@]1(C)[C@H](C)C[C@H](OC(C)=O)[C@]2(COC(C)=O)[C@@H]1[C@H](O)CC[C@]21CO1)C1=CC(=O)OC1 | > 50% |
| C/C=C(\C)C(=O)OC[C@@]12[C@@H](OC(C)=O)C[C@@H](C)[C@](C)(CCC3=CC(=O)OC3)[C@H]1CCC[C@]2(O)CCl [AJUGACUMBIN A CHLOROHYDRIN] | > 50% |
